The record followed here is patent US11142515B2, “Pyrazolyl-ureas as kinase inhibitors” (RESPIVERT LIMITED, priority 2014, dated 2021).

One experiment concerns the target T1, p38MAPKγ (MAPK12) (Homo sapiens, UniProt P53778).
T1 construct: purchased Life Technologies
T1 sequence (P53778 1-367): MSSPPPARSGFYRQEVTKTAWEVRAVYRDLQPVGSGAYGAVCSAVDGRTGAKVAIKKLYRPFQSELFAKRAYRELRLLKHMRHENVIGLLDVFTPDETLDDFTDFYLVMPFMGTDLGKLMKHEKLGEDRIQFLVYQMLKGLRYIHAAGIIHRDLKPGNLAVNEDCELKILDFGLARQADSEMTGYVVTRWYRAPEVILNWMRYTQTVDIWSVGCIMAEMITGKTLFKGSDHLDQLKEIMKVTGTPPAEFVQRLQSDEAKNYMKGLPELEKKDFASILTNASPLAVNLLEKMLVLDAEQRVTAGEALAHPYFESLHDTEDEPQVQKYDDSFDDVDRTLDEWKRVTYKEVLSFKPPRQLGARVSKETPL
Nature of the experiment: p38 MAPKγ enzyme inhibition (Z-LYTE FRET). The experiment is classed as biochemical. Conditions: Table 2B, unit inferred; read-out: p38 MAPKγ (Enzyme Profile). A digest of the protocol: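 Z-LYTE read-out: after 1 h protease development, only non-phosphorylated peptide is cleaved, and the donor/acceptor (coumarin/fluorescein) ratio reports phosphorylation. Beforehand, enzyme and compound (stock concentrations 0.0012–40 μg/mL) were preincubated 2 h at RT, then the kinase reaction ran 1 h at RT with peptide and ATP (8 μM and 400 μM stocks).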

Experiment [1] deals with T2, p38 MAPKα isoform (MAPK14) (Homo sapiens, UniProt Q16539).
T2 construct: purchased Life Technologies
T2 sequence (Q16539 whole entry, canonical isoform): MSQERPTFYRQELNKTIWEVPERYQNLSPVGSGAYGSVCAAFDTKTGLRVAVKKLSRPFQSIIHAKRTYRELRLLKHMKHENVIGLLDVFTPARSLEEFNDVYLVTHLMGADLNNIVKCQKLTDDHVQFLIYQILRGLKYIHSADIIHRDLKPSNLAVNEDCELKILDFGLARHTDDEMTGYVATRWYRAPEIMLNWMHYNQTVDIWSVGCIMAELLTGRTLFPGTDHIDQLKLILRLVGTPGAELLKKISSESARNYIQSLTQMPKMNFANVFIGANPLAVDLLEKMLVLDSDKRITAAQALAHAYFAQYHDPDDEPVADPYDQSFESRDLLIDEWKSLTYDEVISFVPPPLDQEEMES
Nature of the experiment: p38 MAPKα enzyme inhibition (Z-LYTE FRET). The experiment is classed as biochemical. Conditions: Table 2B, unit inferred; read-out: p38 MAPKα (Enzyme Profile). A digest of the protocol:
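Recombinant human MAPK14 (40 ng/mL stock) was preincubated 2 h at RT with compound (stock dilutions 0.0012-40 μg/mL). The Z-LYTE FRET read-out used a MAPKAP-K2-derived peptide, and protease development for 1 h cleaved only non-phosphorylated peptide. Phosphorylation was calculated from the coumarin/fluorescein emission ratio.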

Where only a bound is given, the exact number is not on record here.

Turning to `COC1CCN(C(=O)c2cnc(Nc3cc(COc4ccc(NC(=O)Nc5cc(C(C)(C)C)nn5-c5cccc(C)c5)c5ccccc45)ccn3)cn2)CC1` [Example 206, 1-(3-(tert-butyl)-1-(m-tolyl)-1H-pyrazol-5-yl)-3-(4-((2-((5-(4-methoxypiperidine-1-carbonyl)pyrazin-2-yl)amino)pyridin-4-yl)methoxy)naphthalen-1-yl)urea], the IC50 is 517 nM on p38MAPKγ (MAPK12) and 22 nM in experiment [1].
For the compound `COc1ccc(-n2nc(C(C)(C)C)cc2NC(=O)Nc2ccc(OCc3ccnc(Nc4cnc(C)c(C)n4)c3)c3ccccc23)cn1` [Example 207, 1-(3-(tert-butyl)-1-(6-methoxypyridin-3-yl)-1H-pyrazol-5-yl)-3-(4-((2-((5,6-dimethylpyrazin-2-yl)amino)pyridin-4-yl)methoxy)naphthalen-1-yl)urea], the IC50 amounted to 2390 nM on p38MAPKγ (MAPK12) and 30 nM in experiment [1].
Take `COc1cc(-n2nc(C(C)(C)C)cc2NC(=O)Nc2ccc(OCc3ccnc(Nc4cnc(C)c(C)n4)c3)c3ccccc23)ccc1C` [Example 208, 1-(3-(tert-butyl)-1-(3-methoxy-4-methylphenyl)-1H-pyrazol-5-yl)-3-(4-((2-((5,6-dimethylpyrazin-2-yl)amino)pyridin-4-yl)methoxy)naphthalen-1-yl) urea]: the IC50 is over 15200 nM on p38MAPKγ (MAPK12) and 50 nM in experiment [1].
On the same counts, the results for `COCCNC(=O)Cc1cncc(Nc2cc(COc3ccc(NC(=O)Nc4cc(C(C)(C)C)nn4-c4ccc(C)cc4)c4ccccc34)ccn2)n1` [Example 209, 2-(6-((4-(((4-(3-(3-(tert-butyl)-1-(p-tolyl)-1H-pyrazol-5-yl)ureido)naphthalen-1-yl)oxy)methyl)pyridin-2-yl)amino)pyrazin-2-yl)-N-(2-methoxyethyl)acetamide] are 54 nM and 6.5 nM.
On the same counts, the results for `CCc1cncc(Nc2cc(COc3ccc(NC(=O)Nc4cc(C(C)(C)C)nn4-c4ccc(COC)cc4)c4ccccc34)ccn2)n1` [Example 210, 1-(3-(tert-butyl)-1-(4-(methoxymethyl)phenyl)-1H-pyrazol-5-yl)-3-(4-((2-((6-ethylpyrazin-2-yl)amino)pyridin-4-yl)methoxy)naphthalen-1-yl)urea] are 509 nM and 28 nM.
On the same counts, the results for `CCc1cncc(Nc2cc(COc3ccc(NC(=O)Nc4cc(C(C)(C)C)nn4-c4cc(F)cc(OC)c4)c4ccccc34)ccn2)n1` [Example 211, 1-(3-(tert-butyl)-1-(3-fluoro-5-methoxyphenyl)-1H-pyrazol-5-yl)-3-(4-((2-((6-ethylpyrazin-2-yl)amino)pyridin-4-yl)methoxy)naphthalen-1-yl)urea] are 582 nM and 60 nM.
As for `CCc1cncc(Nc2cc(COc3ccc(NC(=O)Nc4cc(C(C)(C)C)nn4-c4cc(C)cc(C)c4)c4ccccc34)ccn2)n1` [Example 212, 1-(3-(tert-butyl)-1-(3,5-dimethylphenyl)-1H-pyrazol-5-yl)-3-(4-((2-((6-ethyl-pyrazin-2-yl)amino)pyridin-4-yl)methoxy)naphthalen-1-yl)urea], the IC50 is over 15600 nM on p38MAPKγ (MAPK12) and 89 nM in experiment [1].
On the same counts, the results for `CCc1cncc(Nc2cc(COc3ccc(NC(=O)Nc4cc(C(C)(C)C)nn4-c4ccc(F)cc4)c4ccccc34)ccn2)n1` [Example 213, 1-(3-(tert-butyl)-1-(4-fluoro-phenyl)-1H-pyrazol-5-yl)-3-(4-((2-((6-ethylpyrazin-2-yl)amino)pyridin-4-yl)methoxy)naphthalen-1-yl)urea] are 735 nM and 36 nM.
For `Cc1ccc(-n2nc(C(C)(C)C)cc2NC(=O)Nc2ccc(OCc3ccnc(Nc4cnc(C(=O)N5C[C@@H](C)O[C@@H](C)C5)cn4)c3)c3ccccc23)cc1` [Example 214, 1-(3-(tert-butyl)-1-(p-tolyl)-1H-pyrazol-5-yl)-3-(4-((2-((5-((2S,6R)-2,6-dimethyl-morpholine-4-carbonyl)pyrazin-2-yl)amino)pyridin-4-yl)methoxy)naphthalen-1-yl)urea] the same measures were 1930 nM and 31 nM.
On the same counts, the results for `CC(C)(C)c1cc(NC(=O)Nc2ccc(OCc3ccnc(Nc4cnc(C(=O)N5CCCC5)cn4)c3)c3ccccc23)n(-c2ccc(F)cc2)n1` [Example 215, 1-(3-(tert-butyl)-1-(4-fluoro-phenyl)-1H-pyrazol-5-yl)-3-(4-((2-((5-(pyrrolidine-1-carbonyl)pyrazin-2-yl)amino)pyridin-4-yl)methoxy)naphthalen-1-yl)urea] are over 14300 nM and 15 nM.
Consider `COc1cccc(-n2nc(C(C)(C)C)cc2NC(=O)Nc2ccc(OCc3ccnc(Nc4cnc(C(=O)N5CCCC5)cn4)c3)c3ccccc23)c1` [Example 216, 1-(3-(tert-butyl)-1-(3-methoxyphenyl)-1H-pyrazol-5-yl)-3-(4-((2-((5-(pyrrolidine-1-carbonyl)pyrazin-2-yl)amino)pyridin-4-yl)methoxy)naphthalen-1-yl)urea], for which the IC50 stood at 401 nM at p38MAPKγ (MAPK12) and 15 nM in experiment [1].
For `COCc1ccc(-n2nc(C(C)(C)C)cc2NC(=O)Nc2ccc(OCc3ccnc(Nc4cnc(C(=O)N5CCCC5)cn4)c3)c3ccccc23)cc1` [Example 217, 1-(3-(tert-butyl)-1-(4-(methoxymethyl)phenyl)-1H-pyrazol-5-yl)-3-(4-((2-((5-(pyrrolidine-1-carbonyl)pyrazin-2-yl)amino)pyridin-4-yl)methoxy)naphthalen-1-yl)urea] the same measures were 424 nM and 17 nM.
For `Cc1cc(C)cc(-n2nc(C(C)(C)C)cc2NC(=O)Nc2ccc(OCc3ccnc(Nc4cnc(C(=O)N5CCCC5)cn4)c3)c3ccccc23)c1` [Example 218, 1-(3-(tert-butyl)-1-(3,5-dimethylphenyl)-1H-pyrazol-5-yl)-3-(4-((2-((5-(pyrrolidine-1-carbonyl)pyrazin-2-yl)amino)pyridin-4-yl)methoxy)naphthalen-1-yl)urea] the same measures were over 14100 nM and 28 nM.
For `COc1ccc(-n2nc(C(C)(C)C)cc2NC(=O)Nc2ccc(OCc3ccnc(Nc4cnc(C(=O)N5CCCC5)cn4)c3)c3ccccc23)cn1` [Example 219, 1-(3-(tert-butyl)-1-(6-methoxypyridin-3-yl)-1H-pyrazol-5-yl)-3-(4-((2-((5-(pyrrolidine-1-carbonyl)pyrazin-2-yl)amino)pyridin-4-yl)methoxy)naphthalen-1-yl)urea] the same measures were over 14000 nM and 18 nM.
Take `COc1cc(F)cc(-n2nc(C(C)(C)C)cc2NC(=O)Nc2ccc(OCc3ccnc(Nc4cnccn4)c3)c3ccccc23)c1` [Example 220, 1-(3-(tert-butyl)-1-(3-fluoro-5-methoxyphenyl)-1H-pyrazol-5-yl)-3-(4-((2-(pyrazin-2-ylamino)pyridin-4-yl)methoxy)naphthalen-1-yl)urea]: the IC50 is 164 nM at p38MAPKγ (MAPK12) and 31 nM in experiment [1].
Take `CCc1cncc(Nc2cc(COc3ccc(NC(=O)Nc4cc(C(C)(C)C)nn4-c4cc(C)cc(OC)c4)c4ccccc34)ccn2)n1` [Example 221, 1-(3-(tert-butyl)-1-(3-methoxy-5-methylphenyl)-1H-pyrazol-5-yl)-3-(4-((2-((6-ethylpyrazin-2-yl)amino)pyridin-4-yl)methoxy)naphthalen-1-yl)urea]: the IC50 was 1270 nM on p38MAPKγ (MAPK12) and 81 nM in experiment [1].
On the same counts, the results for `CCc1cncc(Nc2cc(COc3ccc(NC(=O)Nc4cc(C(C)(C)C)nn4-c4cccc(COC)c4)c4ccccc34)ccn2)n1` [Example 222, 1-(3-(tert-butyl)-1-(3-(methoxymethyl)phenyl)-1H-pyrazol-5-yl)-3-(4-((2-((6-ethylpyrazin-2-yl)amino)pyridin-4-yl)methoxy)naphthalen-1-yl)urea] are 175 nM and 23 nM.
For `Cc1ccc(-n2nc(C(C)(C)C)cc2NC(=O)Nc2ccc(OCc3ccnc(Nc4cnc(C(=O)N(C)CCCO)cn4)c3)c3ccccc23)cc1` [Example 223, 5-((4-(((4-(3-(3-(tert-butyl)-1-(p-tolyl)-1H-pyrazol-5-yl)ureido)naphthalen-1-yl)oxy)methyl)pyridin-2-yl)amino)-N-(3-hydroxypropyl)-N-methylpyrazine-2-carboxamide] the same measures were 103 nM and 11 nM.
For `COC1CN(C(=O)c2cnc(Nc3cc(COc4ccc(NC(=O)Nc5cc(C(C)(C)C)nn5-c5cccc(C)c5)c5ccccc45)ccn3)cn2)C1` [Example 224, 1-(3-(tert-butyl)-1-(m-tolyl)-1H-pyrazol-5-yl)-3-(4-((2-((5-(3-methoxyazetidine-1-carbonyl)pyrazin-2-yl)amino)pyridin-4-yl)methoxy)naphthalen-1-yl)urea] the same measures were over 14000 nM and 54 nM.
For `COCC1CN(C(=O)c2cnc(Nc3cc(COc4ccc(NC(=O)Nc5cc(C(C)(C)C)nn5-c5ccc(C)cc5)c5ccccc45)ccn3)cn2)C1` [Example 225, 1-(3-(tert-butyl)-1-(p-tolyl)-1H-pyrazol-5-yl)-3-(4-((2-((5-(3-(methoxymethyl)azetidine-l-carbonyl)pyrazin-2-yl)amino)pyridin-4-yl)methoxy)naphthalen-1-yl)urea], the values for the IC50 (on p38MAPKγ (MAPK12); in experiment [1]) were 342 nM and 14 nM, respectively.
